Results reported in ChEMBL document CHEMBL4033614, “Antineoplastic Agents. 603. Quinstatins: Exceptional Cancer Cell Growth Inhibitors” (2017).
Square brackets hold non-standard residues; d marks the D form. Peptide text beside a SMILES is read from it. * marks the point of attachment. Dolaproine = CO[C@@H]([C@@H]1CCCN1)[C@@H](C)C(=O)O; Dil = CC[C@H](C)[C@H](NC)[C@@H](CC(=O)O)OC; X1 = C[C@@H](N*)[C@@H](O)c1ccccc1; NMeV = CN[C@H](C(=O)O)C(C)C

Tests used:
DU-145 = experiment: Growth inhibition of human DU145 cells incubated for 48 hrs by sulforhodamine B assay; details: DU-145, 48 h
MCF7 = experiment: Growth inhibition of human MCF7 cells incubated for 48 hrs by sulforhodamine B assay; details: MCF7, 48 h
BXPC-3 [1] = experiment: Growth inhibition of human BxPC3 cells incubated for 48 hrs by MTT assay; type: functional; details: BXPC-3, 48 h
SF-268 = experiment: Growth inhibition of human SF268 cells incubated for 48 hrs by sulforhodamine B assay; details: SF-268, 48 h
NCI-H460 = experiment: Growth inhibition of human NCI-H460 cells incubated for 48 hrs by sulforhodamine B assay; details: NCI-H460, 48 h
KM-20L2 = experiment: Growth inhibition of human KM20L2 cells incubated for 48 hrs by sulforhodamine B assay; details: KM-20L2, 48 h
BXPC-3 [2] = experiment: Growth inhibition of human BxPC3 cells incubated for 48 hrs by sulforhodamine B assay; details: BXPC-3, 48 h

Question: With `CC[C@H](C)[C@@H]([C@@H](CC(=O)N1CCC[C@H]1[C@H](OC)[C@@H](C)C(=O)NCCc1ccnc2ccccc12)OC)N(C)C(=O)[C@@H](NC(=O)[C@H](C(C)C)N(C)C)C(C)C` as the compound, how does the GI50 (DU-145) read?
Answer: The GI50 was 0.305 nM.

Question: And the GI50 (MCF7)?
Answer: Its GI50 is 0.398 nM.

Question: What about the GI50 (BXPC-3 [1]) of the same compound?
Answer: Its GI50 is 5.84 nM.

Question: And the GI50 (SF-268)?
Answer: The GI50 was 0.252 nM.

Question: And the GI50 (NCI-H460)?
Answer: The GI50 was 5.71 nM.

Question: What about the GI50 (KM-20L2) of the same compound?
Answer: Its GI50 is 0.425 nM.

Question: Which results are given for `CC[C@H](C)[C@@H]([C@@H](CC(=O)N1CCC[C@H]1[C@H](OC)[C@@H](C)C(=O)NCCc1cccc2cccnc12)OC)N(C)C(=O)[C@@H](NC(=O)[C@H](C(C)C)N(C)C)C(C)C`?
Answer: GI50 (BXPC-3 [2]): 0.425 nM; GI50 (DU-145): 0.053 nM; GI50 (MCF7): 0.053 nM; GI50 (SF-268): 0.03 nM; GI50 (NCI-H460): 1.19 nM; GI50 (KM-20L2): 0.053 nM

Question: Which GI50 (DU-145) does the source give for `CC[C@H](C)[C@@H]([C@@H](CC(=O)N1CCC[C@H]1[C@H](OC)[C@@H](C)C(=O)NCCc1ccc2ccccc2n1)OC)N(C)C(=O)[C@@H](NC(=O)[C@H](C(C)C)N(C)C)C(C)C` here?
Answer: Its GI50 is 0.412 nM.

Question: And the GI50 (MCF7)?
Answer: Its GI50 is 0.412 nM.

Question: What about the GI50 (BXPC-3 [1]) of the same compound?
Answer: Its GI50 is 12.4 nM.

Question: What about the GI50 (SF-268) of the same compound?
Answer: Its GI50 is 0.31 nM.

Question: What about the GI50 (NCI-H460) of the same compound?
Answer: Its GI50 is 6.77 nM.

Question: And the GI50 (KM-20L2)?
Answer: Its GI50 is 0.438 nM.

Question: Which results are given for `CC[C@H](C)[C@@H]([C@@H](CC(=O)N1CCC[C@H]1[C@H](OC)[C@@H](C)C(=O)NCCc1ccc2ncccc2c1)OC)N(C)C(=O)[C@@H](NC(=O)[C@H](C(C)C)N(C)C)C(C)C`?
Answer: GI50 (DU-145): 0.399 nM; GI50 (MCF7): 0.532 nM; GI50 (BXPC-3 [1]): 2.66 nM; GI50 (SF-268): 0.399 nM; GI50 (NCI-H460): 5.71 nM; GI50 (KM-20L2): 0.518 nM

Question: Which results are given for `CC[C@H](C)[C@@H]([C@@H](CC(=O)N1CCC[C@H]1[C@H](OC)[C@@H](C)C(=O)NCCc1cccc2ncccc12)OC)N(C)C(=O)[C@@H](NC(=O)[C@H](C(C)C)N(C)C)C(C)C`?
Answer: GI50 (DU-145): 0.172 nM; GI50 (MCF7): 0.097 nM; GI50 (BXPC-3 [1]): 2.79 nM; GI50 (SF-268): 0.146 nM; GI50 (NCI-H460): 6.37 nM; GI50 (KM-20L2): 0.305 nM

Question: Which GI50 (DU-145) does the source give for `CC[C@H](C)[C@@H]([C@@H](CC(=O)N1CCC[C@H]1[C@H](OC)[C@@H](C)C(=O)NCCc1ccc2cccnc2c1)OC)N(C)C(=O)[C@@H](NC(=O)[C@H](C(C)C)N(C)C)C(C)C` here?
Answer: Its GI50 is 0.04 nM.

Question: What about the GI50 (MCF7) of the same compound?
Answer: The GI50 was 0.039 nM.

Question: And the GI50 (BXPC-3 [1])?
Answer: Its GI50 is 4.12 nM.

Question: What about the GI50 (SF-268) of the same compound?
Answer: The GI50 was 0.032 nM.

Question: And the GI50 (NCI-H460)?
Answer: The GI50 was 14.6 nM.

Question: And the GI50 (KM-20L2)?
Answer: Its GI50 is 0.054 nM.

Question: How did the GI50 (DU-145) turn out when `CC[C@H](C)[C@@H]([C@@H](CC(=O)N1CCC[C@H]1[C@H](OC)[C@@H](C)C(=O)N[C@H](C)[C@@H](O)c1ccccc1)OC)N(C)C(=O)[C@@H](NC(=O)[C@@H](NC)C(C)C)C(C)C` (H-[NMeV]V[Dil][Dolaproine]-X1) was run?
Answer: The GI50 was 0.418 nM.

Question: What about the GI50 (MCF7) of the same compound?
Answer: The GI50 was 0.404 nM.

Question: What about the GI50 (BXPC-3 [1]) of the same compound?
Answer: Its GI50 is > 1.39 nM.

Question: And the GI50 (SF-268)?
Answer: The GI50 was 0.432 nM.

Question: And the GI50 (NCI-H460)?
Answer: The GI50 was 0.683 nM.

Question: What about the GI50 (KM-20L2) of the same compound?
Answer: Its GI50 is 0.599 nM.

Question: Which GI50 (DU-145) does the source give for `CC[C@H](C)[C@@H]([C@@H](CC(=O)N1CCC[C@H]1[C@H](OC)[C@@H](C)C(=O)N[C@H](C)[C@@H](O)c1ccccc1)OC)N(C)C(=O)[C@@H](NC(=O)[C@H](C(C)C)N(C)C)C(C)C` here?
Answer: Its GI50 is 0.424 nM.

Question: What about the GI50 (MCF7) of the same compound?
Answer: The GI50 was 0.232 nM.

Question: What about the GI50 (BXPC-3 [1]) of the same compound?
Answer: Its GI50 is > 1.37 nM.

Question: And the GI50 (SF-268)?
Answer: The GI50 was 0.492 nM.

Question: And the GI50 (NCI-H460)?
Answer: Its GI50 is 0.533 nM.

Question: And the GI50 (KM-20L2)?
Answer: The GI50 was 0.492 nM.

Question: Which GI50 (DU-145) does the source give for `CC[C@H](C)[C@@H]([C@@H](CC(=O)N1CCC[C@H]1[C@H](OC)[C@@H](C)C(=O)NCCc1cnc2ccccc2c1)OC)N(C)C(=O)[C@@H](NC(=O)[C@H](C(C)C)N(C)C)C(C)C` here?
Answer: Its GI50 is 0.266 nM.

Question: And the GI50 (MCF7)?
Answer: Its GI50 is 0.305 nM.

Question: And the GI50 (BXPC-3 [1])?
Answer: Its GI50 is 27.9 nM.

Question: What about the GI50 (SF-268) of the same compound?
Answer: Its GI50 is 0.385 nM.

Question: What about the GI50 (NCI-H460) of the same compound?
Answer: Its GI50 is 41.2 nM.

Question: What about the GI50 (KM-20L2) of the same compound?
Answer: Its GI50 is 0.532 nM.
